Data from patent publication US20230265151A1, “GIP/GLP1 CO-AGONIST COMPOUNDS” (priority 2020, published 2023).
Like-named read-outs stand apart in the source and are kept apart here. *1 amine or outer side, *2 acyl side, *3 side chain or, on linkers, in order; H or OH if unused. Where a SMILES comes first, the peptide text is derived from it. Side-chain parts run from the residue outwards. [ ]: non-standard residue; d: D form. The star is where a group is joined. Decanoyl(10-(4-HOOC-PhO)) = O=C(O)c1ccc(OCCCCCCCCCC(=O)*)cc1; αMePhe(2-F) = C[C@](N)(Cc1ccccc1F)C(=O)O; γGlu = O=C(O)[C@H](CCC(=O)[*:2])N[*:1]; αMeY = C[C@](N)(Cc1ccc(O)cc1)C(=O)O; αMeL = CC(C)C[C@](C)(N)C(=O)O; Orn = NCCC[C@H](N)C(=O)O; AEEA = NCCOCCOCC(=O)O; Aib = CC(C)(N)C(=O)O

What was measured:
Format in all cases: cell-based
hGIPR = target: T1, hGIPR (Homo sapiens, UniProt P48546); assay: Functional cAMP formation (HTRF) in HEK-293 clonal cells expressing hGIPR, 0.1% bovine casein, without or with 1.0% human serum albumin; conditions: for EC50: geometric mean
T1 construct: expressed in transfected cells
T1 sequence (P48546 22-466): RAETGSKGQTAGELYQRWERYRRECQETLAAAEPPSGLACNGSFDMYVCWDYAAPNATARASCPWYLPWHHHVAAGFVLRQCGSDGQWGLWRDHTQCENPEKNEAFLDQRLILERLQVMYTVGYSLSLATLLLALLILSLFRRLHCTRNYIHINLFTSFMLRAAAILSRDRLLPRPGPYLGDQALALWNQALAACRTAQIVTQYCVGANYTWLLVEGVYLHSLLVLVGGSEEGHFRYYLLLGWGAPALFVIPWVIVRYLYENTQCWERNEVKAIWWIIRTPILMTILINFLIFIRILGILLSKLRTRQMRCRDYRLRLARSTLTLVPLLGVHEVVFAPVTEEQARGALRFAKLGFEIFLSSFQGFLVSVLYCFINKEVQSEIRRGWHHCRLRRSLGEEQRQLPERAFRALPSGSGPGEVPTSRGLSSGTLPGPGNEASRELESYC
Method in brief: (§1)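 Cells were stimulated with peptide for 30 min at 37° C, then lysed in buffer carrying cAMP-d2 and anti-cAMP Eu3+-cryptate for a competitive HTRF read after at least 60 min at room temperature. The 665/620 nm ratio was converted to nM cAMP against a standard curve.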

hGCGR = target: T2, hGCGR (Homo sapiens, UniProt P47871); assay: Functional cAMP formation (HTRF) in HEK-293 clonal cells expressing hGCGR, 0.1% bovine casein, without or with 1.0% human serum albumin
T2 construct: expressed in transfected cells
T2 sequence (P47871 26-477): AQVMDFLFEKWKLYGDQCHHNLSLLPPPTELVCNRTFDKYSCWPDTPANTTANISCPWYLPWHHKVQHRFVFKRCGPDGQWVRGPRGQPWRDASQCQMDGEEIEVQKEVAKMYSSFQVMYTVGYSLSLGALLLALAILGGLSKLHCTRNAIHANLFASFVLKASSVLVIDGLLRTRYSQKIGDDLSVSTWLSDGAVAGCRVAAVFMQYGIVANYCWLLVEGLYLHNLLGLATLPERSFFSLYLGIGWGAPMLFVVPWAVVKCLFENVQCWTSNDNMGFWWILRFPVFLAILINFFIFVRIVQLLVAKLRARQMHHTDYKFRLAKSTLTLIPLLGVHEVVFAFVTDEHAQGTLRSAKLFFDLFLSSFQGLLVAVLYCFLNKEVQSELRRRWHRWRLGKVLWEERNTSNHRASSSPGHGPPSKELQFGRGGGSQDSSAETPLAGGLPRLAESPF
Method in brief: as §1

hGLP-1R = hGLP-1R (Homo sapiens, UniProt P43220); assay: Functional cAMP formation (HTRF) in HEK-293 clonal cells expressing hGLP-1R, 0.1% bovine casein, without or with 1.0% human serum albumin; parameters: expressed in transfected cells; conditions: for EC50: geometric mean
hGLP-1R, sequence (P43220 24-463): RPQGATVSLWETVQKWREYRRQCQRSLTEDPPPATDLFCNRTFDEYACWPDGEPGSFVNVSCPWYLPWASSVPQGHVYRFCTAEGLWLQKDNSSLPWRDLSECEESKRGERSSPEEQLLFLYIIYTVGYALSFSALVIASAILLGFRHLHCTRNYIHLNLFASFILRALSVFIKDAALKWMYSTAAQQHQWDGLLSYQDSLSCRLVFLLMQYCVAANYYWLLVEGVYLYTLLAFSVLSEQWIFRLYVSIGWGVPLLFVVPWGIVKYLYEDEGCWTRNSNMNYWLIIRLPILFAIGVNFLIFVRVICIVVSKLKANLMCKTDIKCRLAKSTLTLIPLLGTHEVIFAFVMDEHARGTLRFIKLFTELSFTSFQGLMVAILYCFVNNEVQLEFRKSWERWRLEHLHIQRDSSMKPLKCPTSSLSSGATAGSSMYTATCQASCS
Method in brief: as §1

[1] = HEK293, read-out: hGIPR Emax, % ± SEM, cAMP, 37° C., 0.1% bovine casein and 1.0% human serum albumin, percent of maximal response to GIP(1-42)NH2
[2] = hGIPR EC50, nM (SEM, n), cAMP, 37° C., 0.1% bovine casein (no human serum albumin)
[3] = hGCGR EC50, nM (SEM, n), cAMP, 37° C., 0.1% bovine casein (no human serum albumin), geometric mean
[4] = hGCGR EC50, nM (SEM, n), cAMP, 37° C., 0.1% bovine casein and 1.0% human serum albumin, geometric mean (SEM, n)
[5] = HEK293, read-out: hGLP-1R Emax, % ± SEM, cAMP, 37° C., 0.1% bovine casein and 1.0% human serum albumin, percent of maximal response to GLP-1(7-36)NH2
[6] = HEK293, read-out: hGLP-1R Emax, % ± SEM, cAMP, 37° C., 0.1% bovine casein, percent of maximal response to GLP-1(7-36)NH2, arithmetic mean
[7] = hGLP-1R EC50, nM (SEM, n), cAMP, 37° C., 0.1% bovine casein (no human serum albumin)

## CC[C@H](C)[C@H](NC(=O)[C@H](CC(C)C)NC(=O)[C@](C)(Cc1ccc(O)cc1)NC(=O)[C@H](CCCCNC(=O)COCCOCCNC(=O)COCCOCCNC(=O)CCCCCCCCCCCCC(=O)O)NC(=O)[C@@H](NC(=O)[C@H](Cc1ccccc1)NC(=O)[C@H](CCC(=O)O)NC(=O)C(C)(C)NC(=O)[C@H](CCC(N)=O)NC(=O)[C@H](C)NC(=O)[C@H](CCCCNC(=O)COCCOCCNC(=O)COCCOCCNC(=O)CCCCCCCCCCCCC(=O)O)NC(=O)[C@H](CCCN)NC(=O)[C@H](CC(=O)O)NC(=O)[C@H](CC(C)C)NC(=O)[C@](C)(CC(C)C)NC(=O)[C@@H](NC(=O)[C@H](CO)NC(=O)[C@H](Cc1ccncc1)NC(=O)[C@H](CC(=O)O)NC(=O)[C@H](CO)NC(=O)[C@@H](NC(=O)[C@](C)(Cc1ccccc1F)NC(=O)[C@@H](NC(=O)CNC(=O)[C@H](CCC(=O)O)NC(=O)C(C)(C)NC(=O)[C@@H](N)Cc1ccc(O)cc1)[C@@H](C)O)[C@@H](C)O)[C@@H](C)CC)[C@@H](C)CC)C(=O)N[C@@H](CCC(=O)O)C(=O)NCC(=O)NCC(=O)N1CCC[C@H]1C(=O)N[C@@H](CO)C(=O)N[C@@H](CO)C(=O)NCC(=O)N[C@@H](C)C(=O)N1CCC[C@H]1C(=O)N1CCC[C@H]1C(=O)N1CCC[C@H]1C(=O)N[C@@H](CO)C(N)=O [Example 81]
hGIPR; HEK293, read-out: hGIPR Emax, % ± SEM, 0.1% bovine casein and 1.0% human serum albumin, 37° C., percent of maximal response to GIP(1-42)NH2
  Emax: 97.4%
hGIPR; hGIPR EC50, nM (SEM, n), 0.1% bovine casein and 1.0% human serum albumin, 37° C.
  EC50: 0.531 nM
hGIPR; hGIPR EC50, nM (SEM, n), cAMP, incubated at 37° C., 0.1% bovine casein (no human serum albumin)
  EC50: 0.0114 nM
hGCGR; hGCGR EC50, nM (SEM, n), 0.1% bovine casein and 1.0% human serum albumin, 37° C., geometric mean
  EC50: > 9950 nM
hGCGR; hGCGR EC50, nM (SEM, n), cAMP, incubated at 37° C., 0.1% bovine casein (no human serum albumin), geometric mean
  EC50: > 9950 nM
hGLP-1R; hGLP-1R EC50, nM (SEM, n), 0.1% bovine casein and 1.0% human serum albumin, 37° C.
  EC50: 3.47 nM
hGLP-1R; hGLP-1R EC50, nM (SEM, n), cAMP, incubated at 37° C., 0.1% bovine casein (no human serum albumin)
  EC50: 0.176 nM

## CC[C@H](C)[C@H](NC(=O)[C@H](CC(C)C)NC(=O)[C@](C)(Cc1ccc(O)cc1)NC(=O)[C@@H](CCC(=O)O)NC(=O)[C@@H](NC(=O)[C@H](Cc1ccccc1)NC(=O)[C@H](CCC(=O)O)NC(=O)C(C)(C)NC(=O)[C@H](CCC(N)=O)NC(=O)[C@H](C)NC(=O)[C@H](CCCCNC(=O)COCCOCCNC(=O)COCCOCCNC(=O)CC[C@H](NC(=O)CCCCCCCCCOc1ccc(C(=O)O)cc1)C(=O)O)NC(=O)[C@H](CCCN)NC(=O)[C@H](CC(=O)O)NC(=O)[C@H](CC(C)C)NC(=O)[C@](C)(CC(C)C)NC(=O)[C@@H](NC(=O)C(C)(C)NC(=O)[C@@H](NC(=O)[C@H](CC(=O)O)NC(=O)[C@H](CO)NC(=O)[C@@H](NC(=O)[C@](C)(Cc1ccccc1F)NC(=O)[C@@H](NC(=O)CNC(=O)[C@H](CCC(=O)O)NC(=O)C(C)(C)NC(=O)[C@@H](N)Cc1ccc(O)cc1)[C@@H](C)O)[C@@H](C)O)C(C)C)[C@@H](C)CC)[C@@H](C)CC)C(=O)N[C@@H](CCCCNC(=O)COCCOCCNC(=O)COCCOCCNC(=O)CC[C@H](NC(=O)CCCCCCCCCOc1ccc(C(=O)O)cc1)C(=O)O)C(=O)NCC(=O)NCC(=O)N1CCC[C@H]1C(=O)N[C@@H](CO)C(=O)N[C@@H](CO)C(=O)NCC(=O)N[C@@H](C)C(=O)N1CCC[C@H]1C(=O)N1CCC[C@H]1C(=O)N1CCC[C@H]1C(=O)N[C@@H](CO)C(N)=O [Example 326]
hGIPR; [1]
  Emax: 88.7%
hGIPR; [2]
  EC50: 0.0338 nM
hGCGR; [3]
  EC50: > 9950 nM
hGCGR; [4]
  EC50: > 9950 nM
hGLP-1R; [5]
  Emax: 96.1%
hGLP-1R; [6]
  Emax: 94.4%
hGLP-1R; [7]
  EC50: 0.186 nM

## CC[C@H](C)[C@H](NC(=O)[C@H](CCCN)NC(=O)[C@H](CC(=O)O)NC(=O)[C@H](CC(C)C)NC(=O)[C@](C)(CC(C)C)NC(=O)[C@@H](NC(=O)C(C)(C)NC(=O)[C@H](Cc1ccc(O)cc1)NC(=O)[C@H](CC(=O)O)NC(=O)[C@H](CO)NC(=O)[C@@H](NC(=O)[C@](C)(Cc1ccccc1F)NC(=O)[C@@H](NC(=O)CNC(=O)[C@H](CCC(=O)O)NC(=O)C(C)(C)NC(=O)[C@@H](N)Cc1ccc(O)cc1)[C@@H](C)O)[C@@H](C)O)[C@@H](C)CC)C(=O)N[C@@H](C)C(=O)N[C@@H](CCC(N)=O)C(=O)NC(C)(C)C(=O)N[C@@H](CCCCNC(=O)COCCOCCNC(=O)CC[C@H](NC(=O)CCCCCCCCCOc1ccc(C(=O)O)cc1)C(=O)O)C(=O)N[C@@H](Cc1ccccc1)C(=O)N[C@H](C(=O)N[C@H](CCC(=O)O)C(=O)N[C@@](C)(Cc1ccc(O)cc1)C(=O)N[C@@H](CC(C)C)C(=O)N[C@H](C(=O)N[C@@H](CCC(=O)O)C(=O)NCC(=O)NCC(=O)N1CCC[C@H]1C(=O)N[C@@H](CO)C(=O)N[C@@H](CO)C(=O)NCC(=O)N[C@@H](C)C(=O)N1CCC[C@H]1C(=O)N1CCC[C@H]1C(=O)N1CCC[C@H]1C(=O)N[C@@H](CO)C(=O)N[C@@H](CCCCNC(=O)COCCOCCNC(=O)CC[C@H](NC(=O)CCCCCCCCCOc1ccc(C(=O)O)cc1)C(=O)O)C(N)=O)[C@@H](C)CC)[C@@H](C)CC [Example 377] (H-Y[Aib]EGT[αMePhe(2-F)]TSDY[Aib]I[αMeL]LD[Orn]IAQ[Aib]K([AEEA-γGlu-Decanoyl(10-(4-HOOC-PhO))])FI[dE][αMeY]LIEGGPSSGAPPPSK([AEEA-γGlu-Decanoyl(10-(4-HOOC-PhO))])-NH2)
hGIPR; [1]
  Emax: 79.4%
hGIPR; HEK293, read-out: hGIPR Emax, % ± SEM, cAMP, 37° C., 0.1% bovine casein, percent of maximal response to GIP(1-42)NH2, arithmetic mean
  Emax: 92.8%
hGIPR; [2]
  EC50: 0.0205 nM
hGCGR; [3]
  EC50: > 9950 nM
hGCGR; [4]
  EC50: > 9950 nM
hGLP-1R; [5]
  Emax: 110%
hGLP-1R; [6]
  Emax: 100%
hGLP-1R; [7]
  EC50: 0.356 nM

## CC[C@H](C)[C@H](NC(=O)[C@H](CC(C)C)NC(=O)[C@](C)(Cc1ccc(O)cc1)NC(=O)[C@@H](CCC(=O)O)NC(=O)[C@@H](NC(=O)[C@](C)(Cc1ccccc1)NC(=O)[C@H](CCC(=O)O)NC(=O)C(C)(C)NC(=O)[C@H](CCC(N)=O)NC(=O)[C@H](C)NC(=O)[C@H](CCCCNC(=O)COCCOCCNC(=O)COCCOCCNC(=O)CC[C@H](NC(=O)CCCCCCCCCCCCC(=O)O)C(=O)O)NC(=O)[C@H](CCCN)NC(=O)[C@H](CC(=O)O)NC(=O)[C@H](CC(C)C)NC(=O)[C@](C)(CC(C)C)NC(=O)[C@@H](NC(=O)[C@H](CO)NC(=O)C1(NC(=O)[C@H](CC(=O)O)NC(=O)[C@H](CO)NC(=O)[C@@H](NC(=O)[C@](C)(Cc2ccccc2F)NC(=O)[C@@H](NC(=O)CNC(=O)[C@H](CCC(=O)O)NC(=O)C(C)(C)NC(=O)[C@@H](N)Cc2ccc(O)cc2)[C@@H](C)O)[C@@H](C)O)CCCC1)[C@@H](C)CC)[C@@H](C)CC)C(=O)N[C@@H](CCC(=O)O)C(=O)NCC(=O)NCC(=O)N[C@@H](CCCCNC(=O)COCCOCCNC(=O)COCCOCCNC(=O)CC[C@H](NC(=O)CCCCCCCCCCCCC(=O)O)C(=O)O)C(=O)N[C@@H](CO)C(=O)N[C@@H](CO)C(=O)NCC(=O)N[C@@H](C)C(=O)N1CCC[C@H]1C(=O)N1CCC[C@H]1C(=O)N1CCC[C@H]1C(=O)N[C@@H](CO)C(N)=O [Example 94]
hGIPR; HEK293, 0.1% bovine casein and 1.0% human serum albumin, 37° C., percent of maximal response to GIP(1-42)NH2, read-out: hGIPR Emax, % ± SEM
  Emax: 97.1%
hGIPR; HEK293, percent of maximal response to GIP(1-42)NH2, 37° C., 0.1% bovine casein, arithmetic mean, read-out: hGIPR Emax, % ± SEM
  Emax: 91%
hGIPR; cAMP, incubated at 37° C., 0.1% bovine casein (no human serum albumin), read-out: hGIPR EC50, nM (SEM, n)
  EC50: 0.0132 nM
hGCGR; 0.1% bovine casein and 1.0% human serum albumin, 37° C., geometric mean, read-out: hGCGR EC50, nM (SEM, n)
  EC50: > 9950 nM
hGCGR; cAMP, incubated at 37° C., 0.1% bovine casein (no human serum albumin), geometric mean, read-out: hGCGR EC50, nM (SEM, n)
  EC50: > 9950 nM
hGLP-1R; HEK293, 0.1% bovine casein and 1.0% human serum albumin, 37° C., percent of maximal response to GLP-1(7-36)NH2, read-out: hGLP-1R Emax, % ± SEM
  Emax: 113%
hGLP-1R; HEK293, percent of maximal response to GLP-1(7-36)NH2, 37° C., 0.1% bovine casein, arithmetic mean, read-out: hGLP-1R Emax, % ± SEM
  Emax: 97.4%
hGLP-1R; cAMP, incubated at 37° C., 0.1% bovine casein (no human serum albumin), read-out: hGLP-1R EC50, nM (SEM, n)
  EC50: 2.1 nM
